Source: patent US12544395B2, “Combination compositions comprising a beta-lactamase inhibitor and uses thereof” (priority 2018, dated 2026)

Columns and labels:
Assay type in all cases: cell-based
[1] = tested on: three strains of E. coli expressing TEM-1+CTX-M-15, CTX-M-15, and KPC-2+SHV-12; test: MIC against the UTI test strains; details: with Compound 2 at a fixed concentration of 4 μg/mL
K. pneumoniae ESBL 7 #1 = test: Broth microdilution MIC (strain enzymes: SHV-12, TEM-1)
E. coli 25922 = test: Broth microdilution MIC (strain enzymes: None detected)
K. pneumoniae SI-KP NO30 = test: Broth microdilution MIC (strain enzymes: TEM-26b, SHV-60, SHV-26)
E. coli SI-V502 = test: Broth microdilution MIC (strain enzymes: TEM-29, CTX-M15)
E. coli SI-AIRT-4 = test: Broth microdilution MIC (strain enzymes: TEM-1)
K. pneumoniae 170375 = test: Broth microdilution MIC (strain enzymes: SHV-12, CTX-M15 and TEM-1)
E. coli ESBL 4 = test: Broth microdilution MIC (strain enzymes: CTX-M15, TEM-1)
[2] = tested on: 21 strains of Enterobacteriaceae expressing various beta-lactamases; test: MIC testing of thigh model strains; details: with Compound 2 fixed at 4 mg/L
[3] = tested on: panel of ESBL-producing Enterobacteriaceae (40 strains); test: Broth microdilution MIC50/MIC90 summary over the panel
K. pneumoniae 11/23 LF#2 = test: microbe, parasite or virus in culture; details: with inhibitor at 1 μg/mL

Compound: CCC(=O)N[C@H]1Cc2cccc(C(=O)O)c2OB1O [Compound 2, (R)-2-hydroxy-3-propionamido-3,4-dihydro-2H-benzo[e][1,2]oxaborinine-8-carboxylic acid]
- ceftibuten MICs [1]: <0.06 to 0.12 µg/mL
- MIC of cefalexin (LEX) (K. pneumoniae ESBL 7 #1; with inhibitor at 1 μg/mL): 0.5 µg/mL
- MIC of cefdinir (CDR) (K. pneumoniae ESBL 7 #1; with inhibitor at 1 μg/mL): 0.5 µg/mL
- MIC of cefixime (CFM) (K. pneumoniae ESBL 7 #1; with inhibitor at 1 μg/mL): 4 µg/mL
- MIC of ceftibuten (CTB) (K. pneumoniae ESBL 7 #1; with inhibitor at 1 μg/mL): 0.25 µg/mL
- MIC of cefalexin (LEX) (K. pneumoniae ESBL 7 #1; with inhibitor at 2 μg/mL): 1 µg/mL
- MIC of cefdinir (CDR) (K. pneumoniae ESBL 7 #1; with inhibitor at 2 μg/mL): 1 µg/mL
- MIC of cefixime (CFM) (K. pneumoniae ESBL 7 #1; with inhibitor at 2 μg/mL): 4 µg/mL
- MIC of ceftibuten (CTB) (K. pneumoniae ESBL 7 #1; with inhibitor at 2 μg/mL): 0.25 µg/mL
- MIC of cefalexin (LEX) (K. pneumoniae ESBL 7 #1; with inhibitor at 4 μg/mL): 0.5 µg/mL
- MIC of cefdinir (CDR) (K. pneumoniae ESBL 7 #1; with inhibitor at 4 μg/mL): 0.5 µg/mL
- MIC of cefixime (CFM) (K. pneumoniae ESBL 7 #1; with inhibitor at 4 μg/mL): 1 µg/mL
- MIC of ceftibuten (CTB) (K. pneumoniae ESBL 7 #1; with inhibitor at 4 μg/mL): 0.125 µg/mL
- MIC of cefalexin (LEX) (E. coli 25922; with inhibitor at 1 μg/mL): 0.125 µg/mL
- MIC of cefdinir (CDR) (E. coli 25922; with inhibitor at 1 μg/mL): 0.125 µg/mL
- MIC of cefixime (CFM) (E. coli 25922; with inhibitor at 1 μg/mL): 0.125 µg/mL
- MIC of ceftibuten (CTB) (E. coli 25922; with inhibitor at 1 μg/mL): 0.125 µg/mL
- MIC of cefalexin (LEX) (E. coli 25922; with inhibitor at 2 μg/mL): 0.125 µg/mL
- MIC of cefdinir (CDR) (E. coli 25922; with inhibitor at 2 μg/mL): 0.125 µg/mL
- MIC of cefixime (CFM) (E. coli 25922; with inhibitor at 2 μg/mL): 0.06 µg/mL
- MIC of ceftibuten (CTB) (E. coli 25922; with inhibitor at 2 μg/mL): 0.06 µg/mL
- MIC of cefalexin (LEX) (E. coli 25922; with inhibitor at 4 μg/mL): 0.125 µg/mL
- MIC of cefdinir (CDR) (E. coli 25922; with inhibitor at 4 μg/mL): 0.125 µg/mL
- MIC of cefixime (CFM) (E. coli 25922; with inhibitor at 4 μg/mL): 0.06 µg/mL
- MIC of ceftibuten (CTB) (E. coli 25922; with inhibitor at 4 μg/mL): 0.06 µg/mL
- MIC of cefalexin (LEX) (K. pneumoniae SI-KP NO30; with inhibitor at 1 μg/mL): 0.125 µg/mL
- MIC of cefdinir (CDR) (K. pneumoniae SI-KP NO30; with inhibitor at 1 μg/mL): 0.125 µg/mL
- MIC of cefixime (CFM) (K. pneumoniae SI-KP NO30; with inhibitor at 1 μg/mL): 0.5 µg/mL
- MIC of ceftibuten (CTB) (K. pneumoniae SI-KP NO30; with inhibitor at 1 μg/mL): 0.06 µg/mL
- MIC of cefalexin (LEX) (K. pneumoniae SI-KP NO30; with inhibitor at 2 μg/mL): 0.25 µg/mL
- MIC of cefdinir (CDR) (K. pneumoniae SI-KP NO30; with inhibitor at 2 μg/mL): 0.25 µg/mL
- MIC of cefixime (CFM) (K. pneumoniae SI-KP NO30; with inhibitor at 2 μg/mL): 0.25 µg/mL
- MIC of ceftibuten (CTB) (K. pneumoniae SI-KP NO30; with inhibitor at 2 μg/mL): 0.06 µg/mL
- MIC of cefalexin (LEX) (K. pneumoniae SI-KP NO30; with inhibitor at 4 μg/mL): 0.125 µg/mL
- MIC of cefdinir (CDR) (K. pneumoniae SI-KP NO30; with inhibitor at 4 μg/mL): 0.125 µg/mL
- MIC of cefixime (CFM) (K. pneumoniae SI-KP NO30; with inhibitor at 4 μg/mL): 0.25 µg/mL
- MIC of ceftibuten (CTB) (K. pneumoniae SI-KP NO30; with inhibitor at 4 μg/mL): 0.06 µg/mL
- MIC of cefalexin (LEX) (E. coli SI-V502; with inhibitor at 1 μg/mL): 1 µg/mL
- MIC of cefdinir (CDR) (E. coli SI-V502; with inhibitor at 1 μg/mL): 1 µg/mL
- MIC of cefixime (CFM) (E. coli SI-V502; with inhibitor at 1 μg/mL): 0.25 µg/mL
- MIC of ceftibuten (CTB) (E. coli SI-V502; with inhibitor at 1 μg/mL): 0.25 µg/mL
- MIC of cefalexin (LEX) (E. coli SI-V502; with inhibitor at 2 μg/mL): 0.5 µg/mL
- MIC of cefdinir (CDR) (E. coli SI-V502; with inhibitor at 2 μg/mL): 0.5 µg/mL
- MIC of cefixime (CFM) (E. coli SI-V502; with inhibitor at 2 μg/mL): 0.5 µg/mL
- MIC of ceftibuten (CTB) (E. coli SI-V502; with inhibitor at 2 μg/mL): 0.25 µg/mL
- MIC of cefalexin (LEX) (E. coli SI-V502; with inhibitor at 4 μg/mL): 0.5 µg/mL
- MIC of cefdinir (CDR) (E. coli SI-V502; with inhibitor at 4 μg/mL): 0.5 µg/mL
- MIC of cefixime (CFM) (E. coli SI-V502; with inhibitor at 4 μg/mL): 0.25 µg/mL
- MIC of ceftibuten (CTB) (E. coli SI-V502; with inhibitor at 4 μg/mL): 0.125 µg/mL
- MIC of cefalexin (LEX) (E. coli SI-AIRT-4; with inhibitor at 1 μg/mL): 0.25 µg/mL
- MIC of cefdinir (CDR) (E. coli SI-AIRT-4; with inhibitor at 1 μg/mL): 0.25 µg/mL
- MIC of cefixime (CFM) (E. coli SI-AIRT-4; with inhibitor at 1 μg/mL): 0.125 µg/mL
- MIC of ceftibuten (CTB) (E. coli SI-AIRT-4; with inhibitor at 1 μg/mL): 0.06 µg/mL
- MIC of cefalexin (LEX) (E. coli SI-AIRT-4; with inhibitor at 2 μg/mL): 0.25 µg/mL
- MIC of cefdinir (CDR) (E. coli SI-AIRT-4; with inhibitor at 2 μg/mL): 0.25 µg/mL
- MIC of cefixime (CFM) (E. coli SI-AIRT-4; with inhibitor at 2 μg/mL): 0.125 µg/mL
- MIC of ceftibuten (CTB) (E. coli SI-AIRT-4; with inhibitor at 2 μg/mL): 0.06 µg/mL
- MIC of cefalexin (LEX) (E. coli SI-AIRT-4; with inhibitor at 4 μg/mL): 0.25 µg/mL
- MIC of cefdinir (CDR) (E. coli SI-AIRT-4; with inhibitor at 4 μg/mL): 0.25 µg/mL
- MIC of cefixime (CFM) (E. coli SI-AIRT-4; with inhibitor at 4 μg/mL): 0.06 µg/mL
- MIC of ceftibuten (CTB) (E. coli SI-AIRT-4; with inhibitor at 4 μg/mL): 0.06 µg/mL
- MIC of cefalexin (LEX) (K. pneumoniae 170375; with inhibitor at 1 μg/mL): 8 µg/mL
- MIC of cefdinir (CDR) (K. pneumoniae 170375; with inhibitor at 1 μg/mL): 8 µg/mL
- MIC of cefixime (CFM) (K. pneumoniae 170375; with inhibitor at 1 μg/mL): 1 µg/mL
- MIC of ceftibuten (CTB) (K. pneumoniae 170375; with inhibitor at 1 μg/mL): 0.06 µg/mL
- MIC of cefalexin (LEX) (K. pneumoniae 170375; with inhibitor at 2 μg/mL): 4 µg/mL
- MIC of cefdinir (CDR) (K. pneumoniae 170375; with inhibitor at 2 μg/mL): 4 µg/mL
- MIC of cefixime (CFM) (K. pneumoniae 170375; with inhibitor at 2 μg/mL): 1 µg/mL
- MIC of ceftibuten (CTB) (K. pneumoniae 170375; with inhibitor at 2 μg/mL): 0.06 µg/mL
- MIC of cefalexin (LEX) (K. pneumoniae 170375; with inhibitor at 4 μg/mL): 2 µg/mL
- MIC of cefdinir (CDR) (K. pneumoniae 170375; with inhibitor at 4 μg/mL): 2 µg/mL
- MIC of cefixime (CFM) (K. pneumoniae 170375; with inhibitor at 4 μg/mL): 1 µg/mL
- MIC of ceftibuten (CTB) (K. pneumoniae 170375; with inhibitor at 4 μg/mL): 0.06 µg/mL
- MIC of cefalexin (LEX) (E. coli ESBL 4; with inhibitor at 1 μg/mL): 2 µg/mL
- MIC of cefdinir (CDR) (E. coli ESBL 4; with inhibitor at 1 μg/mL): 2 µg/mL
- MIC of cefixime (CFM) (E. coli ESBL 4; with inhibitor at 1 μg/mL): 0.5 µg/mL
- MIC of ceftibuten (CTB) (E. coli ESBL 4; with inhibitor at 1 μg/mL): 0.25 µg/mL
- MIC of cefalexin (LEX) (E. coli ESBL 4; with inhibitor at 2 μg/mL): 1 µg/mL
- MIC of cefdinir (CDR) (E. coli ESBL 4; with inhibitor at 2 μg/mL): 1 µg/mL
- MIC of cefixime (CFM) (E. coli ESBL 4; with inhibitor at 2 μg/mL): 0.25 µg/mL
- MIC of ceftibuten (CTB) (E. coli ESBL 4; with inhibitor at 2 μg/mL): 0.125 µg/mL
- MIC of cefalexin (LEX) (E. coli ESBL 4; with inhibitor at 4 μg/mL): 0.5 µg/mL
- MIC of cefdinir (CDR) (E. coli ESBL 4; with inhibitor at 4 μg/mL): 0.5 µg/mL
- MIC of cefixime (CFM) (E. coli ESBL 4; with inhibitor at 4 μg/mL): 0.25 µg/mL
- MIC of ceftibuten (CTB) (E. coli ESBL 4; with inhibitor at 4 μg/mL): 0.25 µg/mL
- ceftibuten MICs [2]: ≤ 2 µg/mL
- Cefdinir MIC50 ([3]; with inhibitor at 1 μg/mL): 0.5 µg/mL
- Cefdinir MIC90 ([3]; with inhibitor at 1 μg/mL): 4 µg/mL
- Cefixime MIC50 ([3]; with inhibitor at 1 μg/mL): 1 µg/mL
- Cefixime MIC90 ([3]; with inhibitor at 1 μg/mL): 4 µg/mL
- Cefpodoxime MIC50 ([3]; with inhibitor at 1 μg/mL): 1 µg/mL
- Cefpodoxime MIC90 ([3]; with inhibitor at 1 μg/mL): 8 µg/mL
- Ceftibuten MIC50 ([3]; with inhibitor at 1 μg/mL): 0.125 µg/mL
- Ceftibuten MIC90 ([3]; with inhibitor at 1 μg/mL): 0.5 µg/mL
- Cephalexin MIC50 ([3]; with inhibitor at 1 μg/mL): 8 µg/mL
- Cephalexin MIC90 ([3]; with inhibitor at 1 μg/mL): 32 µg/mL
- Cefdinir MIC50 ([3]; with inhibitor at 2 μg/mL): 0.5 µg/mL
- Cefdinir MIC90 ([3]; with inhibitor at 2 μg/mL): 2 µg/mL
- Cefixime MIC50 ([3]; with inhibitor at 2 μg/mL): 0.5 µg/mL
- Cefixime MIC90 ([3]; with inhibitor at 2 μg/mL): 4 µg/mL
- Cefpodoxime MIC50 ([3]; with inhibitor at 2 μg/mL): 1 µg/mL
- Cefpodoxime MIC90 ([3]; with inhibitor at 2 μg/mL): 2 µg/mL
- Ceftibuten MIC50 ([3]; with inhibitor at 2 μg/mL): 0.125 µg/mL
- Ceftibuten MIC90 ([3]; with inhibitor at 2 μg/mL): 0.25 µg/mL
- Cephalexin MIC50 ([3]; with inhibitor at 2 μg/mL): 8 µg/mL
- Cephalexin MIC90 ([3]; with inhibitor at 2 μg/mL): 32 µg/mL
- Cefdinir MIC50 ([3]; with inhibitor at 4 μg/mL): 0.5 µg/mL
- Cefdinir MIC90 ([3]; with inhibitor at 4 μg/mL): 2 µg/mL
- Cefixime MIC50 ([3]; with inhibitor at 4 μg/mL): 0.25 µg/mL
- Cefixime MIC90 ([3]; with inhibitor at 4 μg/mL): 1 µg/mL
- Cefpodoxime MIC50 ([3]; with inhibitor at 4 μg/mL): 1 µg/mL
- Cefpodoxime MIC90 ([3]; with inhibitor at 4 μg/mL): 2 µg/mL
- Ceftibuten MIC50 ([3]; with inhibitor at 4 μg/mL): 0.125 µg/mL
- Ceftibuten MIC90 ([3]; with inhibitor at 4 μg/mL): 0.25 µg/mL
- Cephalexin MIC50 ([3]; with inhibitor at 4 μg/mL): 8 µg/mL
- Cephalexin MIC90 ([3]; with inhibitor at 4 μg/mL): 16 µg/mL
- MIC of cefalexin (LEX) (K. pneumoniae 11/23 LF#2): 0.25 µg/mL
- MIC of cefdinir (CDR) (K. pneumoniae 11/23 LF#2): 0.25 µg/mL
- MIC of cefixime (CFM) (K. pneumoniae 11/23 LF#2): 4 µg/mL
